In PubChem BioAssay (NCI):
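Following 48 hours of exposure in 96-well plates, responses at five concentrations were used to interpolate endpoints linearly. The concentration for full growth arrest is given as TGI.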 Where a SMILES comes first, the peptide text is derived from it. The star is where a group is joined. Boc = CC(C)(C)OC(=O)*

How the values were obtained:
Assay in all cases: growth of human tumour cells (NCI), 48 h
SF-295 CNS = test system: SF-295 CNS
BT-549 breast = test system: BT-549 breast
A498 renal = test system: A498 renal
EKVX NSCLC = test system: EKVX NSCLC
SK-MEL-5 melanoma = test system: SK-MEL-5 melanoma
HT29 colon = test system: HT29 colon
SF-268 CNS = test system: SF-268 CNS
SK-MEL-28 melanoma = test system: SK-MEL-28 melanoma
MALME-3M melanoma = test system: MALME-3M melanoma
T-47D breast = test system: T-47D breast
NCI/ADR-RES ovarian = test system: NCI/ADR-RES ovarian
NCI-H460 lung = test system: NCI-H460 lung
HCC-2998 colon = test system: HCC-2998 colon
HOP-62 NSCLC = test system: HOP-62 NSCLC
OVCAR-8 ovarian = test system: OVCAR-8 ovarian
K-562 leukemia = test system: K-562 leukemia

| Compound | TGI (SF-295 CNS) [µM] | TGI (BT-549 breast) [µM] | TGI (A498 renal) [µM] | TGI (EKVX NSCLC) [µM] | TGI (SK-MEL-5 melanoma) [µM] | TGI (HT29 colon) [µM] | TGI (SF-268 CNS) [µM] | TGI (SK-MEL-28 melanoma) [µM] | TGI (MALME-3M melanoma) [µM] | TGI (T-47D breast) [µM] | TGI (NCI/ADR-RES ovarian) [µM] | TGI (NCI-H460 lung) [µM] | TGI (HCC-2998 colon) [µM] | TGI (HOP-62 NSCLC) [µM] | TGI (OVCAR-8 ovarian) [µM] | TGI (K-562 leukemia) [µM] |
| --- | --- | --- | --- | --- | --- | --- | --- | --- | --- | --- | --- | --- | --- | --- | --- | --- |
| CCCCCC(C)C[C@H]1CO[C@H](c2ccc[nH]2)N[C@H]1C(=O)OC (some centres undefined) | > 100 | > 100 | > 100 | > 100 | > 100 | > 100 | > 100 | > 100 | > 100 | > 100 | > 100 | > 100 | > 100 | > 100 | > 100 | – |
| COc1nc2c(c(=O)n1C)N[C@@H]1[C@@H](O)[C@H](O)CO[C@@H]1N2 | > 100 | > 100 | > 100 | > 100 | > 100 | > 100 | > 100 | > 100 | > 100 | > 100 | > 100 | > 100 | – | > 100 | > 100 | > 100 |
| Cn1c(N/N=C/c2ccc(Cl)cc2)nc(-c2ccc(Cl)cc2)c(C#N)c1=O | 41.5 | 67.5 | 93.5 | 68.4 | > 100 | > 100 | > 100 | > 100 | 91.7 | > 100 | > 100 | > 100 | – | 25.1 | 44.6 | > 100 |
| CSc1n[n+](C)cc(N)c1N | > 100 | > 100 | > 100 | > 100 | > 100 | > 100 | – | > 100 | > 100 | > 100 | > 100 | – | > 100 | > 100 | > 100 | > 100 |
| Cc1ccc2c3c1O[C@H]1c4nc5ccccc5cc4C[C@@]4(O)[C@@H](C2)N(CC2CC2)CC[C@]314 | 20.8 | 25.5 | 30.7 | 37.9 | 19.2 | 16.7 | 25.6 | > 100 | 28.2 | 32.2 | 23.5 | 35.8 | – | 31.3 | 22.6 | 23 |
| CN(C)Cc1cc(C(=O)/C=C/c2ccc(/C=C/C(=O)c3cc(CN(C)C)c(O)c(CN(C)C)c3)cc2)cc(CN(C)C)c1O | > 100 | 60.2 | > 100 | > 100 | > 100 | 37.7 | > 100 | > 100 | > 100 | > 100 | > 100 | – | 33.4 | > 100 | > 100 | > 100 |
| O=C(c1cccs1)N(C(=O)N1CCC(c2ccccc2)CC1)c1ccccc1 | > 100 | > 100 | > 100 | 52.9 | 38.8 | > 100 | > 100 | > 100 | > 100 | 93.5 | > 100 | > 100 | – | 98.3 | > 100 | > 100 |
| CCn1c2c(c3c(C(=O)OC)c(O)ccc31)C(=O)c1ccccc1C2=O | 47.1 | 39.5 | – | 59.7 | 27.6 | 36.5 | 69.6 | 42.6 | 35 | 33 | 66 | 27.9 | 34.9 | 30.1 | 30.7 | > 100 |
| CCCCNC(=S)Nc1nc(C(=O)NNS(=O)(=O)c2ccccc2)cs1 | > 100 | 70.8 | > 100 | > 100 | 31 | – | > 100 | – | > 100 | > 100 | > 100 | – | 97.7 | > 100 | > 100 | > 100 |
| Cc1ccc2[nH]c(=O)c(-c3cnc(=O)[nH]n3)c(O)c2c1 | > 100 | > 100 | > 100 | > 100 | > 100 | > 100 | > 100 | > 100 | > 100 | > 100 | > 100 | > 100 | – | > 100 | > 100 | > 100 |
| O=C1/C(=C/c2cccs2)N=C(c2ccccc2)N1C1Nc2cc3c(cc2S1)NC(N1C(=O)/C(=C/c2cccs2)N=C1c1ccccc1)S3 (centres undefined) | > 100 | 35.1 | > 100 | 43.6 | 37.4 | > 100 | 47.5 | > 100 | – | > 100 | 33.6 | > 100 | 43.3 | > 100 | 47.2 | > 100 |
| Brc1ccc2c(c1)C1=C(CO2)Cc2ccccc2O1 | 35.4 | 33 | 45.2 | 54.9 | 28.2 | 62.8 | 41 | – | 38.2 | 33.2 | 58.3 | – | 32.3 | 30.3 | 47.6 | > 100 |
| CC1(C)C2CCC1C(=O)C(C=O)C2 (centres undefined) | > 100 | > 100 | > 100 | – | > 100 | > 100 | > 100 | > 100 | > 100 | > 100 | > 100 | > 100 | > 100 | > 100 | > 100 | > 100 |
| CN(C)c1ccc(/C=N/NC2=N/C(=C\c3ccco3)C(=O)N2)cc1 | > 100 | > 100 | > 100 | > 100 | > 100 | > 100 | > 100 | > 100 | > 100 | > 100 | > 100 | > 100 | – | > 100 | > 100 | > 100 |
| O=C1CC(O)c2c(Cl)sc(Cl)c21 (centres undefined) | > 59.3 | 29.7 | 42.6 | 37.2 | 43.5 | 10 | 17.8 | 13.5 | – | > 24.2 | 59.2 | 52.3 | 46.3 | 29.4 | 14.2 | > 28.7 |
| CC1CC[C@]2(C(=O)O)CCC3(C)C(=C2[C@H]1C)C=CC1[C@@]2(C)CC[C@H](O)C(C)(C)C2CC[C@]13C (some centres undefined) | 47 | > 100 | – | > 100 | 56.6 | > 100 | > 100 | 98.4 | 73.2 | 58.9 | > 100 | > 100 | 73.8 | 74.8 | > 100 | > 100 |
| CC(NC(=O)C(NC(=O)OC(C)(C)C)C(C)C)C(=O)NCC(=O)O (stereo not drawn) (Boc-Val-Ala-Gly-OH; configuration not given here) | > 100 | > 100 | – | > 100 | > 100 | > 100 | > 100 | > 100 | > 100 | > 100 | > 100 | > 100 | > 100 | > 100 | > 100 | > 100 |
| c1ccc2c(c1)SC1Sc3ccccc3[S+]21 (centres undefined) | > 100 | 37.2 | > 100 | 52.5 | 22.7 | > 85.3 | 39.8 | 41.4 | 15.5 | > 100 | 51 | > 70.7 | – | > 100 | > 78.3 | > 23.3 |
| CN(C)c1ccc(/C=C2\N=C(c3ccccc3)N(c3nc4c(Cl)cc(Cl)cc4s3)C2=O)cc1 | > 100 | > 100 | 92.3 | > 100 | > 100 | > 100 | > 100 | > 100 | – | > 100 | > 100 | > 100 | > 100 | > 100 | > 100 | > 100 |
| CCOC(=O)/C(=C\c1ccc(CO)o1)P(=O)(OCC)OCC | > 100 | 45 | > 100 | > 100 | > 100 | > 100 | 75.8 | 82.3 | 50 | > 100 | > 100 | 32.6 | > 100 | > 100 | – | – |
| CC(=O)Nc1ccc(Nc2nc(=O)[nH]c(=O)[nH]2)cc1 | > 100 | > 100 | > 100 | > 100 | > 100 | > 100 | > 100 | > 100 | > 100 | > 100 | > 100 | > 100 | > 100 | > 100 | > 100 | – |
| COC1CCC(OC2CC(C3(C)CCC4(CC(O)C(C)C(C(C)/C=C(\C)C(=O)C(C)CC(C)C(=O)O)O4)O3)OC3(OC(C4OC(O)(CO)C(C)CC4C)CC3C)C2C)OC1C (centres undefined) | 1.79 | 1.26 | 0.336 | 9.64 | 0.464 | 2.19 | 2.84 | 0.189 | 0.103 | 1.22 | 6.65 | 1.6 | 1.61 | 2.87 | 1.87 | – |
| COc1cccc(/C=C/C2=NN(c3cccc(S(=O)(=O)O)c3)C3(C2)SCC(=O)N3c2nc3ccccc3s2)c1 (centres undefined) | – | > 100 | > 100 | > 100 | > 100 | > 100 | > 100 | > 100 | > 100 | 52.8 | > 100 | > 100 | > 100 | – | > 100 | > 100 |
